Experimental data reported in patent US20250099420A1, “SMALL MOLECULE MODULATORS OF GPR139 COMPLEX” (University of Florida Research Foundation, Incorporated, priority 2022, published 2025).
Like-named read-outs stand apart in the source and are kept apart here.

Key:
[1] = test system: parental HEK cells; assay: HEK parental Agonist Counterscreen Assay (non-transfected cells); assay type: cell-based; conditions: for Averaged Max % Response (±St. Dev.): activity relative to known control
Source text: The high control for the agonist counterscreen was Forskolin not acetylcholine.

[2] = target: T1, GPR139 (Homo sapiens, UniProt Q6DWJ6); assay: GPR139 Agonist titration / agonist counterscreen assay (calcium detection, HEK-GPR139 cells); assay type: cell-based; set-up: expressed in transfected cells; host or cells: HEK Aequorin cells, Maxcyte transient transfection; conditions: GPR139 Agonist Activity; for EC50: read-out: EC50; for Averaged Max % Response (±St. Dev.): activity relative to known control
T1 sequence (Q6DWJ6 1-353): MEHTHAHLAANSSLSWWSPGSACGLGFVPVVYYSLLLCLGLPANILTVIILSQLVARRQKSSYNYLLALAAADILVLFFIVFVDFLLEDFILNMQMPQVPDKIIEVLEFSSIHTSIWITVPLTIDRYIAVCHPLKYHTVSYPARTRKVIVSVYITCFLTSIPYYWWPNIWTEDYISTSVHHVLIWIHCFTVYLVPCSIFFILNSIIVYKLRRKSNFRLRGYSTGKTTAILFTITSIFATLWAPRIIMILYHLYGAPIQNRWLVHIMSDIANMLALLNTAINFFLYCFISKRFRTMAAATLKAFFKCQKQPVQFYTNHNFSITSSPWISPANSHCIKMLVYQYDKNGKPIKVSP
Experimental: GPR activity was assessed using a calcium detection assay. […] Negative control samples were treated with DMSO. […] Intracellular calcium was measured using Calcium 5.

[3] = Homo sapiens, HEK293, HEK Agonist Activity section of Table 4 (parental HEK counterscreen)
[4] = HEK Agonist Activity section of Table 4 (parental HEK counterscreen)
[5] = values printed in E-notation without unit

| SMILES | Lipophilic Efficiency (logD) ([1]; HEK Agonist Activity section) | Lipophilic Efficiency (logP) ([1]; HEK Agonist Activity section) | Averaged Max % Response (±St. Dev.) ([1]; HEK Agonist Activity section) [%] | EC50 [1, 3] [nM] | Efficiency Ligand [2] | Hill Slope [2] | Lipophilic Efficiency (logD) [2] | Lipophilic Efficiency (logP) [2] | EC50 ([2]; HEK-GPR139 cells) [nM] | Averaged Max % Response (±St. Dev.) [2] [%] | EC50 [1, 4] [nM] | Lipophilic Efficiency (logD) ([2]; based on logD) | Lipophilic Efficiency (logP) ([2]; based on logP) | Hill Slope ([2]; fitted dose-response curve) | Efficiency Ligand ([2]; ligand efficiency) | EC50 [2, 5] [nM] | also measured |
| --- | --- | --- | --- | --- | --- | --- | --- | --- | --- | --- | --- | --- | --- | --- | --- | --- | --- |
| O=C(Cn1ncn2c(cc3sccc32)c1=O)NCCc1ccc(Cl)cc1 [SR-01000099712] | 2.50 | 2.50 | 7.86 ± 5.01 | > 14100 | 0.33 | 1.73 | 3.73 | 3.73 | 839 | 90.08 ± 9.76 |  |  |  |  |  |  |  |
| CCCc1cc(=O)n2[nH]c(NCc3ccccc3F)nc2n1 [SR-01000100493] | 1.65 | 1.65 | 4.54 ± 3.12 |  |  |  |  |  |  | 100.68 ± 11.72 | > 14100 | 3.60 | 3.60 | 0.73 | 0.43 | 160 |  |
| Cc1ccc(Br)cc1S(=O)(=O)NCCC(=O)NCCc1sccc1C [SR-01000101329] | 3.17 | 3.16 | −2.50 ± 6.06 | > 14100 |  |  |  |  |  | 102.96 ± 12.58 |  | 5.16 | 5.15 | 0.79 | 0.38 |  |  |
| COc1ccc(CCC(=O)Nc2ccc(/C(N)=N/O)cc2)cc1 [SR-01000103876] | 2.61 | 2.60 | 1.17 ± 3.96 |  |  |  |  |  |  | 114.46 ± 17.21 | > 14100 | 4.50 | 4.50 | 0.82 | 0.41 | 179 |  |
| CC(C)CCNC(=O)C1C2C=CC3(CN(Cc4ccccc4Cl)C(=O)C13)O2 (stereo not drawn) [SR-01000104567] |  |  |  |  |  |  |  |  |  | 119.91 ± 2.22 |  | 5.19 | 5.19 | 0.32 | 0.40 | 19.8 | Lipophilic Efficiency (logD) ([1]; HEK Agonist Activity): 2.34; Lipophilic Efficiency (logP) ([1]; HEK Agonist Activity): 2.34; Averaged Max % Response (±St. Dev.) ([1]; HEK Agonist Activity): 8.02 ± 5.87%; EC50 ([1]; HEK Agonist Activity, parental non-transfected HEK cells): > 14100 nM |
| CC(NC(=O)CN1CCN(Cc2ccc(Cl)cc2)C1=O)c1ccccc1 (stereo not drawn) [SR-01000105214] | 2.13 | 2.13 | −5.28 ± 2.10 | > 14100 |  |  |  |  |  | 114.03 ± 9.34 |  | 3.89 | 3.89 | 0.51 | 0.36 | 245 |  |
| CSc1ccc(CCNC(=O)Cn2ncc3c(=O)oc4ccccc4c32)cc1 [SR-01000105999] | 2.04 | 2.04 | 4.15 ± 6.01 | > 14100 | 0.32 | 1.37 | 3.64 | 3.64 | 355 | 100.11 ± 8.55 |  |  |  |  |  |  |  |
| Cc1ccc2c(c1)-c1c(cnn1CC(=O)Nc1ncccc1C)CO2 [SR-01000106321] | 1.97 | 1.97 | 6.49 ± 5.13 |  | 0.34 | 1.43 | 3.26 | 3.26 | 732 | 96.96 ± 1.13 | > 14100 |  |  |  |  |  |  |
| CCOC(=O)C1C2C=CC3(CN(C(C)c4ccc(Br)cc4)C(=O)C13)O2 (stereo not drawn) [SR-01000114492] | 2.28 | 2.28 | −1.32 ± 3.21 |  | 0.34 | 0.90 | 3.50 | 3.50 | 853 | 84.13 ± 7.28 | > 14100 |  |  |  |  |  |  |
| COc1ccc(C(C)N2CC34C=CC(O3)C(C(=O)OCC(C)C)C4C2=O)cc1 (stereo not drawn) [SR-01000114500] | 2.32 | 2.32 | 4.75 ± 6.36 |  |  |  |  |  |  | 93.61 ± 11.95 | > 14100 | 4.21 | 4.21 | 1.06 | 0.34 | 184 |  |
| O=C(CCS(=O)(=O)c1cccc2nonc12)NCCc1ccc(Cl)cc1 [SR-01000119565] | 2.79 | 2.79 | 5.54 ± 5.16 |  | 0.30 | 1.07 | 3.46 | 3.46 | 3000 | 68.12 ± 14.87 | > 14100 |  |  |  |  |  |  |
| O=C(NCCn1ccc2ccccc21)c1cccs1 [SR-01000124129] | 1.77 | 1.77 | −9.08 ± 5.27 | > 14100 |  |  |  |  |  | 84.79 ± 6.25 |  | 3.83 | 3.83 | 0.88 | 0.51 | 123 |  |
| O=C(NCCn1ccc2ccccc21)c1cccc(Cl)c1 [SR-01000124131] | 1.08 | 1.08 | −0.13 ± 10.83 | > 14100 | 0.42 | 0.85 | 2.55 | 2.55 | 472 | 93.55 ± 12.47 |  |  |  |  |  |  |  |
| O=C(NCCn1ccc2ccccc21)c1cccc(Br)c1 [SR-01000124135] | 0.91 | 0.91 | 7.54 ± 4.78 | > 14100 |  |  |  |  |  | 71.94 ± 4.54 |  | 2.76 | 2.76 | 0.57 | 0.45 | 197 |  |
| CC(Oc1ccccc1)C(=O)NCCn1ccc2ccccc21 (stereo not drawn) [SR-01000124163] | 1.45 | 1.45 | −3.45 ± 3.02 | > 14100 | 0.36 | 1.37 | 2.59 | 2.59 | 1000 | 90.02 ± 28.06 |  |  |  |  |  |  |  |
| COc1ccc2cc(CCNC(=O)/C=C\c3ccc4c(c3)OCO4)c(=O)[nH]c2c1 [SR-01000124392] | 2.31 | 2.31 | 5.97 ± 7.64 |  | 0.28 | 0.49 | 3.17 | 3.17 | 2000 | 80.01 ± 6.26 | > 14100 |  |  |  |  |  |  |
| COc1cc(C(=O)NCCn2ccc3ccccc32)cc(OC)c1OC [SR-01000124399] | 2.15 | 2.15 | −5.54 ± 8.42 | > 14100 |  |  |  |  |  | 147.35 ± 21.79 |  | 4.50 | 4.50 | 0.70 | 0.39 | 62.9 |  |
| O=C(NCCc1ccc(Cl)cc1)c1nnc(Cc2ccc(F)cc2)o1 [SR-01000125346] | 1.73 | 1.73 | 18.06 ± 8.45 | > 14100 | 0.34 | 1.86 | 2.95 | 2.95 | 840 | 91.83 ± 43.39 |  |  |  |  |  |  |  |
| O=C(CN1CCN(Cc2ccccc2Cl)C1=O)NCc1ccccc1Cl [SR-01000125458] |  |  |  |  |  |  |  |  |  | 119.40 ± 41.91 |  | 4.54 | 4.54 | 0.73 | 0.40 | 35.8 | Lipophilic Efficiency (logD) ([1]; HEK Agonist Activity): 1.94; Lipophilic Efficiency (logP) ([1]; HEK Agonist Activity): 1.94; Averaged Max % Response (±St. Dev.) ([1]; HEK Agonist Activity): −1.02 ± 2.16%; EC50 ([1]; Homo sapiens, HEK293, HEK Agonist Activity, parental non-transfected HEK cells): > 14100 nM |
